Several values for one entry are separate records, joined by “and”; a condition that tells them apart may be missing. Identical values can stand only once. One block for each molecule: values may come before it.
Tests used:
Type in all cases: cell-based
RXFP2 = RXFP2 (Homo sapiens, UniProt Q8WXD0); experiment: HTRF cAMP assay in HEK-RXFP2 cells (stably transfected; also primary HTS); design: FLAG (N); expressed in transfected cells; conditions: Fig. 1a, initial hit and enantiomers
Procedure: A quantitative high-throughput screening (HTS) of more than 80 K compounds of the NCATS/NIH diversity collection was performed at four concentrations in HEK293T cells stably expressing human RXFP2 to identify candidate agonists. A homogenous time resolved fluorescence (HTRF) assay was used to directly detect compound-induced cAMP accumulation, with forskolin or human recombinant INSL3 serving as positive controls. […] A confirmatory CRE-luciferase cAMP screen was used to eliminate any potential false positives due to assay detection artifacts (Supplementary Fig. 1a).
The cAMP response induced by the compounds was normalized to the cAMP response induced by 100 nM INSL3 as 100% efficacy and the cAMP response induced by DMSO vehicle as 0% efficacy. Emax and EC50 were calculated using four parameter nonlinear fit dose-response stimulation curves. […] Molecular weight (MW).
The HTRF Gs dynamic cAMP assay kit (CisBio, Bedford, MA) was used to measure intracellular cAMP accumulation in HEK293T cells (ATCC, Manassas, VA)[56]. […] The cell stock was verified mycoplasma free and authenticated by ATCC. Transient transfection was accomplished by treating cells in a 6-well plate with a mixture of 2 μg plasmid and 6 μL Lipofectamine 2000 (Invitrogen, Waltham, MA) per manufacturer’s protocol and incubating overnight. For cAMP measurement in 96-well format, HEK293T cells stably transfected with human RXFP2 (HEK-RXFP2), human RXFP1 (HEK-RXFP1), mouse Rxfp1 (HEK-Rxfp1) or transiently transfected with human RXFP1-RXFP2 chimeric receptors were seeded between 7500 and 30,000 cells per well, depending on cell line responsiveness, in serum-free DMEM medium and incubated overnight at 37 °C, 5% CO2. After 18 h, cells were treated with a titration of compound, 2 μM forskolin, or DMSO vehicle. Control wells were also treated with a titration of INSL3 (Phoenix Pharmaceuticals, Burlingame, CA) or human recombinant relaxin 2 (Peprotech, Cranbury, NJ). For the RXFP2 antagonist experiment, cells were co-treated with 0.28 μM compound or 30 nM INSL3 and a titration of the INSL3 B dimer antagonist[38],[39]. For the INSL3 allosteric modulation experiment, cells were co-treated with 0.025, 0.0025, or 0.00025 μM of compound and a titration of INSL3. Cells were incubated for 1 h at 37 °C, 5% CO2, and then kit cAMP-d2 and anti-cAMP antibody were added per manufacturer protocol. Plates were incubated for 1 h at room temperature and the signal was read on a CLARIOstar plate reader (BMG Labtech, Ortenberg, Germany) at 665 and 620 nm emission wavelengths.

human RXFP3 = biological target: T1, human RXFP3 (Homo sapiens, UniProt Q9NSD7); experiment: GloSensor cAMP assay in RXFP3 transiently transfected HEK293T cells; conditions: for RLU (cAMP, raw): RXFP3, 0.1 µM isoproterenol, replicates (1)-(4)
T1 construct: host or cells: HEK293T (transient)
T1 sequence (Q9NSD7 1-469): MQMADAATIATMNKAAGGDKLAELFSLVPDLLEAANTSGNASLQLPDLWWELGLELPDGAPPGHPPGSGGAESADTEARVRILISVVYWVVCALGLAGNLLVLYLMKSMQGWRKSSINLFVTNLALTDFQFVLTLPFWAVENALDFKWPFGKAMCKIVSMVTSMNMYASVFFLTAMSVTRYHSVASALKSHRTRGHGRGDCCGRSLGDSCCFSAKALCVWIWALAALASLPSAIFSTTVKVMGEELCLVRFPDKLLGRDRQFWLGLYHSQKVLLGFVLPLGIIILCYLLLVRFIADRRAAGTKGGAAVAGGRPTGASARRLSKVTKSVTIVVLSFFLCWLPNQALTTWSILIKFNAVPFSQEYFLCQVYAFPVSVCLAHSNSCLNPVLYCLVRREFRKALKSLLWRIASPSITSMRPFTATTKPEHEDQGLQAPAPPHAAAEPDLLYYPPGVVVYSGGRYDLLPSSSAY

human RXFP4 = biological target: T2, human RXFP4 (Homo sapiens, UniProt Q8TDU9); experiment: GloSensor cAMP assay in RXFP4 transiently transfected HEK293T cells; conditions: for RLU (cAMP, raw): RXFP4, 0.1 µM isoproterenol, replicates (1)-(4)
T2 construct: host or cells: HEK293T (transient)
T2 sequence (Q8TDU9 whole entry): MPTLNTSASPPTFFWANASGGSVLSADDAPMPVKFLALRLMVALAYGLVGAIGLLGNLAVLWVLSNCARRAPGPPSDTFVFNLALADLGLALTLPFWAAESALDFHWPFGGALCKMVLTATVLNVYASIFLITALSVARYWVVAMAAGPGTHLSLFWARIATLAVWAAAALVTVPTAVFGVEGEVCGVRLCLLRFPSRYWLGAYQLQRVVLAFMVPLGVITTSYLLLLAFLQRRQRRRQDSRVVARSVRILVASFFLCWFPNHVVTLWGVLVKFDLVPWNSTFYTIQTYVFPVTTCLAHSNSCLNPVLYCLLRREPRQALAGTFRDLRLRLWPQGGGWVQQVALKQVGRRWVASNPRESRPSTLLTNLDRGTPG

[1] = cAMP induced by 0.1 µM isoproterenol

RXFP2, sequence (Q8WXD0 whole entry): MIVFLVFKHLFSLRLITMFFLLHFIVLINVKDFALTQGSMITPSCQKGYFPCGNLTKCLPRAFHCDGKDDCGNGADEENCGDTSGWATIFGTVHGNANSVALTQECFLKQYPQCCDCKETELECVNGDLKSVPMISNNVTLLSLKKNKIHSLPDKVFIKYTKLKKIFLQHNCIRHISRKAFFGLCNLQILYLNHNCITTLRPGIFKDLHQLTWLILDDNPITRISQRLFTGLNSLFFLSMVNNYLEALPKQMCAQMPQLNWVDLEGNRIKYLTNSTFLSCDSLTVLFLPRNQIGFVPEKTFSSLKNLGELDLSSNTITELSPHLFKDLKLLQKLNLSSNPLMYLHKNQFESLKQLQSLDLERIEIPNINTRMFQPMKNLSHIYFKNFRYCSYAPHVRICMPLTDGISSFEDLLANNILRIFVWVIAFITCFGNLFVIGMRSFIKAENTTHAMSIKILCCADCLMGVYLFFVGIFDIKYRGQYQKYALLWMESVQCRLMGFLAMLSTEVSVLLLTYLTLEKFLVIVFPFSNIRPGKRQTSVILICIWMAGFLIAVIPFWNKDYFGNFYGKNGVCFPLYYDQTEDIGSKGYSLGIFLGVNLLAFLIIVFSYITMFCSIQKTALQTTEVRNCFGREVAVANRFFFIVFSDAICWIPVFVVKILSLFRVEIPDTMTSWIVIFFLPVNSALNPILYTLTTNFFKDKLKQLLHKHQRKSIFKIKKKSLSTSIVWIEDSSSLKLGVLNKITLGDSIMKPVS

RXFP2 agonist activity in SAR scheme (Active / Inactive) (RXFP2): Active
Molecule: O=C1Nc2ccc(-c3cccc(C(F)(F)F)c3)cc2C(=O)N2CCN(C(=O)COc3ccccc3)CC12 (centres unmarked) [compound 8685]

RXFP2 agonist activity in SAR scheme (Active / Inactive) (RXFP2): Inactive
Molecule: O=C1Nc2ccc(-c3cccc(C(F)(F)F)c3)cc2C(=O)N2CCN(C(=O)COc3ccccc3)C[C@H]12 [compound 9940]

RXFP2 agonist activity in SAR scheme (Active / Inactive) (RXFP2): Active
Molecule: O=C1Nc2ccc(-c3cccc(C(F)(F)F)c3)cc2C(=O)N2CCN(C(=O)COc3ccccc3)C[C@@H]12 [compound 9941]

activation of RXFP3 (cAMP inhibition) (human RXFP3; [1]): cAMP inhibition was induced
activation of RXFP4 (cAMP inhibition) (human RXFP4; [1]): cAMP inhibition was induced
Molecule: Relaxin 3 [reference compound]
RLU (cAMP, raw) (human RXFP3; Log [M] -6.52): 1192.27 RLU and 862.59 RLU and 949.473 RLU and 1055.99 RLU
RLU (cAMP, raw) (human RXFP3; Log [M] -7): 1047.66 RLU and 816.174 RLU and 793.561 RLU and 818.554 RLU
RLU (cAMP, raw) (human RXFP3; Log [M] -7.52): 956.019 RLU and 1042.31 RLU and 964.35 RLU and 906.626 RLU
RLU (cAMP, raw) (human RXFP3; Log [M] -8): 852.474 RLU and 715.01 RLU and 962.564 RLU and 860.21 RLU
RLU (cAMP, raw) (human RXFP3; Log [M] -8.52): 886.989 RLU and 845.333 RLU and 966.73 RLU and 845.928 RLU
RLU (cAMP, raw) (human RXFP3; Log [M] -9): 816.769 RLU and 926.264 RLU and 1003.03 RLU and 782.254 RLU
RLU (cAMP, raw) (human RXFP3; Log [M] -9.52): 998.865 RLU and 951.853 RLU and 1093.48 RLU and 960.779 RLU
RLU (cAMP, raw) (human RXFP3; Log [M] -10): 1300.57 RLU and 1261.3 RLU and 1319.62 RLU and 1454.11 RLU
RLU (cAMP, raw) (human RXFP3; Log [M] -10.52): 1602.51 RLU and 1583.63 RLU and 1833.56 RLU and 1666.69 RLU
RLU (cAMP, raw) (human RXFP3; Log [M] -11): 1772.4 RLU and 1591.93 RLU and 1761.07 RLU and 2392.31 RLU
RLU (cAMP, raw) (human RXFP3; Log [M] -11.52): 1947.57 RLU and 1934.74 RLU and 2203.54 RLU and 1701.42 RLU
RLU (cAMP, raw) (human RXFP3; Log [M] -12): 1918.12 RLU and 1736.15 RLU and 2144.65 RLU and 2026.1 RLU
RLU (cAMP, raw) (human RXFP4; Log [M] -6.48): 1291.4 RLU and 1273.39 RLU and 1346.81 RLU and 1344.73 RLU
RLU (cAMP, raw) (human RXFP4; Log [M] -7): 1098.17 RLU and 1299.02 RLU and 1204.83 RLU and 1290.02 RLU
RLU (cAMP, raw) (human RXFP4; Log [M] -7.48): 1677.86 RLU and 1738.12 RLU and 1419.53 RLU and 1594.75 RLU
RLU (cAMP, raw) (human RXFP4; Log [M] -8): 1308.71 RLU and 1324.64 RLU and 953.421 RLU and 1409.83 RLU
RLU (cAMP, raw) (human RXFP4; Log [M] -8.48): 1529.65 RLU and 1656.39 RLU and 1650.16 RLU and 1971.52 RLU
RLU (cAMP, raw) (human RXFP4; Log [M] -9): 1954.9 RLU and 1829.54 RLU and 1896.03 RLU and 2124.58 RLU
RLU (cAMP, raw) (human RXFP4; Log [M] -9.48): 2502.74 RLU and 2781.85 RLU and 2785.32 RLU and 3087.98 RLU
RLU (cAMP, raw) (human RXFP4; Log [M] -10): 2794.2 RLU and 2602.12 RLU and 2925.02 RLU and 3021.06 RLU
RLU (cAMP, raw) (human RXFP4; Log [M] -10.48): 3431.68 RLU and 3104.99 RLU and 3415.8 RLU and 3651.73 RLU
RLU (cAMP, raw) (human RXFP4; Log [M] -11): 3106.51 RLU and 3181.37 RLU and 2993.83 RLU and 2959.05 RLU
RLU (cAMP, raw) (human RXFP4; Log [M] -11.48): 3672.91 RLU and 3117.85 RLU and 3373.45 RLU and 3185.15 RLU
RLU (cAMP, raw) (human RXFP4; Log [M] -12): 3273.63 RLU and 3139.78 RLU and 2622.54 RLU and 2913.68 RLU

Reference: paper PMC9636434, “Discovery of small molecule agonists of the Relaxin Family Peptide Receptor 2” (Communications Biology, 2022)
